According to PubChem BioAssay AID256 (DTP/NCI, 2004):
Where “and” joins values, the source holds several entries; their conditions need not be identical. Identical values can stand only once. Inconclusive results and toxic doses are left out. The calls were made as follows: active = survival T/C of 150% or more; inactive = T/C below 125% in these data.

System: CD2F1 mice, L1210 leukemia ip, survival T/C
Test: NCI In Vivo Anticancer Drug Screen. Data for tumor model L1210 Leukemia (intraperitoneal) in CD2F1 (CDF1) mice
Settings: higher = longer survival
Outline: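 In this screen, transplantable tumors were grown in mice given either the compound or its vehicle. Results were expressed as the treated measurement relative to the control measurement.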

[1] = endpoint: mean survival time, dose: 100.0 mg/kg/injection, schedule: Q01DX001 (ip), vehicle: saline with Tween-80
[2] = endpoint: mean survival time, dose: 100.0 mg/kg/injection, schedule: Q01DX009 (ip), vehicle: saline with Tween-80
[3] = endpoint: mean survival time, dose: 200.0 mg/kg/injection, schedule: Q01DX009 (ip), vehicle: saline with Tween-80
[4] = endpoint: mean survival time, dose: 400.0 mg/kg/injection, schedule: Q01DX009 (ip), vehicle: saline with Tween-80
[5] = endpoint: mean survival time, dose: 12.5 mg/kg/injection, schedule: Q01DX009 (ip), vehicle: water
[6] = endpoint: mean survival time, dose: 100.0 mg/kg/injection, schedule: Q04DX002 (ip), vehicle: saline with Tween-80
[7] = endpoint: mean survival time, dose: 200.0 mg/kg/injection, schedule: Q04DX002 (ip), vehicle: saline with Tween-80
[8] = endpoint: mean survival time, dose: 400.0 mg/kg/injection, schedule: Q04DX002 (ip), vehicle: saline with Tween-80
[9] = endpoint: mean survival time, dose: 100.0 mg/kg/injection, schedule: Q04DX003 (ip), vehicle: saline with Tween-80
[10] = endpoint: mean survival time, dose: 200.0 mg/kg/injection, schedule: Q04DX003 (ip), vehicle: saline with Tween-80
[11] = endpoint: mean survival time, dose: 400.0 mg/kg/injection, schedule: Q04DX003 (ip), vehicle: saline with Tween-80
[12] = endpoint: mean survival time, dose: 100.0 mg/kg/injection, schedule: Q04DX003 (ip), vehicle: Klucel (hydroxypropylcellulose) (HPC)
[13] = endpoint: mean survival time, dose: 200.0 mg/kg/injection, schedule: Q04DX003 (ip), vehicle: Klucel (hydroxypropylcellulose) (HPC)
[14] = endpoint: mean survival time, dose: 25.0 mg/kg/injection, schedule: Q01DX009 (ip), vehicle: other
[15] = endpoint: mean survival time, dose: 50.0 mg/kg/injection, schedule: Q01DX009 (ip), vehicle: other
[16] = endpoint: mean survival time, dose: 100.0 mg/kg/injection, schedule: Q01DX009 (ip), vehicle: other
[17] = endpoint: mean survival time, dose: 50.0 mg/kg/injection, schedule: Q04DX002 (ip), vehicle: saline with Tween-80

Measured: T/C

Cc1cc(N2C(=O)CCSC2=S)ccc1Cl
inactive: endpoint: mean survival time, dose: 12.5 mg/kg/injection, schedule: Q01DX009 (ip), vehicle: Klucel (hydroxypropylcellulose) (HPC) 101 % of control and 105 % of control | endpoint: mean survival time, dose: 25.0 mg/kg/injection, schedule: Q01DX009 (ip), vehicle: Klucel (hydroxypropylcellulose) (HPC) 95 % of control and 103 % of control and 109 % of control | endpoint: mean survival time, dose: 50.0 mg/kg/injection, schedule: Q01DX009 (ip), vehicle: Klucel (hydroxypropylcellulose) (HPC) 113 % of control and 97 % of control | endpoint: mean survival time, dose: 100.0 mg/kg/injection, schedule: Q01DX009 (ip), vehicle: Klucel (hydroxypropylcellulose) (HPC) 122 % of control and 123 % of control and 97 % of control | endpoint: mean survival time, dose: 200.0 mg/kg/injection, schedule: Q01DX009 (ip), vehicle: Klucel (hydroxypropylcellulose) (HPC) 95 % of control and 107 % of control | endpoint: mean survival time, dose: 400.0 mg/kg/injection, schedule: Q01DX009 (ip), vehicle: Klucel (hydroxypropylcellulose) (HPC) 102 % of control

COC(=O)C1C2CC3c4[nH]c5cc(OC)c(Br)cc5c4CCN3CC2CC(OC(=O)c2cc(OC)c(OC)c(OC)c2)C1OC (stereo not given)
inactive: endpoint: mean survival time, dose: 75.0 mg/kg/injection, schedule: Q01DX001 (ip), vehicle: saline 92 % of control | endpoint: mean survival time, dose: 150.0 mg/kg/injection, schedule: Q01DX001 (ip), vehicle: saline 103 % of control | endpoint: mean survival time, dose: 300.0 mg/kg/injection, schedule: Q01DX001 (ip), vehicle: saline 105 % of control

CN(C=O)c1ccccc1C(=O)O
inactive: [1] 98 % of control | [2] 96 % of control | endpoint: mean survival time, dose: 200.0 mg/kg/injection, schedule: Q01DX001 (ip), vehicle: saline with Tween-80 101 % of control | [3] 91 % of control | endpoint: mean survival time, dose: 400.0 mg/kg/injection, schedule: Q01DX001 (ip), vehicle: saline with Tween-80 98 % of control | [4] 97 % of control

CC1(C)CC(OP(=O)(OC2CC(C)(C)N(O)C(C)(C)C2)N2CC2)CC(C)(C)N1O
inactive: [5] 102 % of control | endpoint: mean survival time, dose: 25.0 mg/kg/injection, schedule: Q01DX009 (ip), vehicle: water 113 % of control and 104 % of control | endpoint: mean survival time, dose: 50.0 mg/kg/injection, schedule: Q01DX009 (ip), vehicle: water 110 % of control | endpoint: mean survival time, dose: 100.0 mg/kg/injection, schedule: Q01DX009 (ip), vehicle: water 112 % of control

CN(C)/C=N\c1ncnc2c1ncn2C1OC(CO)C2OC(C)(C)OC21 (stereo not given)
inactive: [6] 109 % of control | [7] 109 % of control | [8] 114 % of control

C[N+](C)(C)CCO
inactive: endpoint: mean survival time, dose: 100.0 mg/kg/injection, schedule: Q01DX009 (ip), vehicle: saline 96 % of control | endpoint: mean survival time, dose: 200.0 mg/kg/injection, schedule: Q01DX009 (ip), vehicle: saline 102 % of control | endpoint: mean survival time, dose: 400.0 mg/kg/injection, schedule: Q01DX009 (ip), vehicle: saline 90 % of control

O=C(O)C(O)Cn1ccccc1=O (stereo not given)
inactive: endpoint: mean survival time, dose: 50.0 mg/kg/injection, schedule: Q01DX001 (ip), vehicle: saline 104 % of control | endpoint: mean survival time, dose: 100.0 mg/kg/injection, schedule: Q01DX001 (ip), vehicle: saline 96 % of control | endpoint: mean survival time, dose: 200.0 mg/kg/injection, schedule: Q01DX001 (ip), vehicle: saline 101 % of control

c1ccc2c(c1)ccc1c[n+]3ccccc3cc12
inactive: endpoint: mean survival time, dose: 1.25 mg/kg/injection, schedule: Q01DX009 (ip), vehicle: saline with Tween-80 95 % of control | endpoint: mean survival time, dose: 5.0 mg/kg/injection, schedule: Q04DX003 (ip), vehicle: saline sonified 96 % of control

CN(C)c1n[nH]c(N)n1
inactive: endpoint: mean survival time, dose: 76.0 mg/kg/injection, schedule: Q04DX003 (ip), vehicle: saline 97 % of control | endpoint: mean survival time, dose: 115.0 mg/kg/injection, schedule: Q04DX003 (ip), vehicle: saline 101 % of control | endpoint: mean survival time, dose: 174.0 mg/kg/injection, schedule: Q04DX003 (ip), vehicle: saline 104 % of control | endpoint: mean survival time, dose: 264.0 mg/kg/injection, schedule: Q04DX003 (ip), vehicle: saline 103 % of control | endpoint: mean survival time, dose: 400.0 mg/kg/injection, schedule: Q04DX003 (ip), vehicle: saline 105 % of control

N#Cc1c(F)c(F)c(NN)c(F)c1F
inactive: [9] 93 % of control | [10] 89 % of control

O=C(C(=O)N1CC2C=CC1C2)c1c[nH]c2ccccc12 (stereo not given)
inactive: [2] 101 % of control | [9] 102 % of control | [3] 97 % of control | [10] 97 % of control | [4] 101 % of control | [11] 92 % of control

CCOC(=O)c1cnc2c(cnn2CC)c1OCc1ccccc1
inactive: [12] 101 % of control | [13] 104 % of control | endpoint: mean survival time, dose: 400.0 mg/kg/injection, schedule: Q04DX003 (ip), vehicle: Klucel (hydroxypropylcellulose) (HPC) 108 % of control

CCCCCCCCCSCCOC(=S)N(C)C
inactive: [6] 93 % of control | [7] 93 % of control | [8] 93 % of control

CN(C)CCCNc1cccc2c1C(=O)c1cccc(NCCCN(C)C)c1C2=O
inactive: endpoint: mean survival time, dose: 8.0 mg/kg/injection, schedule: Q01DX009 (ip), vehicle: acid diluted with saline 102 % of control | endpoint: mean survival time, dose: 16.0 mg/kg/injection, schedule: Q01DX009 (ip), vehicle: acid diluted with saline 102 % of control | endpoint: mean survival time, dose: 32.0 mg/kg/injection, schedule: Q01DX009 (ip), vehicle: acid diluted with saline 106 % of control | endpoint: mean survival time, dose: 64.0 mg/kg/injection, schedule: Q01DX009 (ip), vehicle: acid diluted with saline 100 % of control

CS(=O)(=O)OCC1OC(n2ccc(NC(=O)c3ccccc3)nc2=O)CC1OS(C)(=O)=O (stereo not given)
inactive: endpoint: median survival time, dose: 12.5 mg/kg/injection, schedule: Q01DX005 (ip), vehicle: saline with Tween-80 108 % of control | endpoint: median survival time, dose: 25.0 mg/kg/injection, schedule: Q01DX005 (ip), vehicle: saline with Tween-80 100 % of control | endpoint: median survival time, dose: 50.0 mg/kg/injection, schedule: Q01DX005 (ip), vehicle: saline with Tween-80 107 % of control | endpoint: median survival time, dose: 100.0 mg/kg/injection, schedule: Q01DX005 (ip), vehicle: saline with Tween-80 103 % of control | endpoint: median survival time, dose: 200.0 mg/kg/injection, schedule: Q01DX005 (ip), vehicle: saline with Tween-80 97 % of control

COC(=O)c1ccc(O)c(O)c1
inactive: [2] 102 % of control | [9] 99 % of control | [3] 101 % of control | [10] 102 % of control | [4] 90 % of control | [11] 91 % of control

C1CC2C3CCC(C3)C2C1 (stereo not given)
inactive: [2] 103 % of control | [3] 102 % of control | [4] 96 % of control

CC(C)CCCC(C)C1CCC2C3CC=C4CC(OCCO)CCC4(C)C3CCC12C (stereo not given)
inactive: [14] 104 % of control | [15] 101 % of control | [16] 87 % of control

COc1ccc2nc3cc(Cl)ccc3c(Nc3ccc(NC(C)=O)cc3)c2n1
inactive: [14] 92 % of control | [15] 86 % of control | [16] 94 % of control

CCC(Cl)[N+](=O)[O-] (stereo not given)
inactive: endpoint: mean survival time, dose: 50.0 mg/kg/injection, schedule: Q04DX003 (ip), vehicle: Klucel (hydroxypropylcellulose) (HPC) 97 % of control | [12] 107 % of control | [13] 101 % of control

C=C1C(=O)OC2/C=C(\C)C3OC3/C=C(/C(=O)OC)C(O)C(OC(=O)C3(C)OC3C)C12 (stereo not given)
inactive: [1] 104 % of control

O=C(CCCC(=O)c1ccccc1)OC1(c2ccccc2)CCCC(=O)O1 (stereo not given)
inactive: [17] 98 % of control | [6] 98 % of control | [7] 94 % of control

CC1=C(C2=C(C)C([N+](=O)[O-])(C(C)(C)C)C=C(C(C)(C)C)C2=O)C(=O)C(C(C)(C)C)=CC1([N+](=O)[O-])C(C)(C)C (stereo not given)
inactive: [6] 90 % of control | [7] 94 % of control | [8] 90 % of control

CCCC1CC[N-]CC1.CCCC1CC[N-]CC1.CCCC1CC[N-]CC1.CCCC1CC[N-]CC1.CS(C)=O.CS(C)=O.[Cl-].[Cl-].[Cl-].[Cl-].[Cl][Rh][Cl].[Rh+3]
inactive: endpoint: mean survival time, dose: 6.25 mg/kg/injection, schedule: Q01DX009 (ip), vehicle: water 98 % of control | [5] 112 % of control | endpoint: mean survival time, dose: 25.0 mg/kg/injection, schedule: Q04DX003 (ip), vehicle: water 120 % of control

CC(C)(C)C1SCC(O)CS1 (stereo not given)
inactive: endpoint: mean survival time, dose: 12.5 mg/kg/injection, schedule: Q04DX002 (ip), vehicle: saline with Tween-80 105 % of control | endpoint: mean survival time, dose: 25.0 mg/kg/injection, schedule: Q04DX002 (ip), vehicle: saline with Tween-80 97 % of control | [17] 97 % of control

COc1c(CBr)c(CBr)c(OC)c2ccccc12
inactive: [9] 101 % of control | [10] 100 % of control | [11] 101 % of control

Cc1ccc(S(=O)(=O)N=S(C)(C)=O)cc1
inactive: [6] 98 % of control | [7] 94 % of control | [8] 94 % of control
